Experimental findings from ChEMBL document CHEMBL1201862, “PubChem BioAssay data set” (2004) are described below.

Test systems include K562; SN12C; SF-268; TK-10; HCC 2998; LOX IMVI; MOLT-4; HOP-62; KM12; OVCAR-5; UO-31; SW-620; SK-OV-3; HL-60; RXF 393; SR; COLO 205; CCRF-CEM.
Common to all, as to experiment: NCI anticancer screen, dose series, 48 h

The structures appear in SMILES notation.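 Dose response: 5 concentrations. Exposure: 48 h. Format: 96-well plates. Endpoint: linear interpolation; highest concentration if not reached. The concentration for 50% growth inhibition is given as GI50.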 Active and inactive are the calls of the source. No stated cut-off is given here; in the data, active = GI50 up to about 1.1 µM and inactive = higher. Where only a bound is given, the exact number is not on record here.

`COc1ccc(OC)c2c1CC(C(=O)O)(C(=O)O)CC2=O`: the GI50 in the experiment with K562, in the experiment on SN12C, in the experiment on SF-268, in the experiment on TK-10, with HCC 2998 and with LOX IMVI was > 100 µM (inactive) in each case. In addition, the GI50 with MOLT-4, in the experiment on HOP-62, in the experiment on KM12, in the experiment on OVCAR-5, in the experiment on UO-31 and with SW-620 was > 100 µM (inactive) in each case. Moreover, the GI50 in the experiment with SK-OV-3, with HL-60 and in the experiment on RXF 393 was > 100 µM (inactive) in each case.

For the molecule `CCOC(=O)C1=C(C)N(NC(=O)OC)C2(N)N(NC(=O)OC)C(C)=C(C(=O)OCC)C12C#N` (configuration not stated), the GI50 in the experiment on K562, in the experiment with SN12C, in the experiment on SF-268, in the experiment with HCC 2998, with LOX IMVI and in the experiment with MOLT-4 was > 100 µM (inactive) throughout. Also, the GI50 in the experiment on HOP-62, in the experiment with KM12, in the experiment with OVCAR-5, with UO-31, in the experiment with SR and with SW-620 was > 100 µM (inactive) each time. Also, the GI50 with SK-OV-3 and in the experiment on HL-60 was > 100 µM (inactive) in each case.

Turning to `COc1ccc(C(=O)C(C(=O)CCC(=O)Nc2cccc(C(F)(F)F)c2)c2ccccc2)cc1` (configuration not stated), the GI50 in the experiment with K562 is 54 µM (inactive); in the experiment with SN12C, > 100 µM (inactive); in the experiment on SF-268 it was > 100 µM (inactive); with TK-10, > 100 µM (inactive); in the experiment on HCC 2998, > 100 µM (inactive); with COLO 205, > 100 µM (inactive). Also, the GI50 in the experiment on MOLT-4 was 43.1 µM (inactive); with HOP-62, > 100 µM (inactive); with KM12, > 100 µM (inactive); in the experiment with OVCAR-5, > 100 µM (inactive); with UO-31, 55.1 µM (inactive); with SR it was 62.7 µM (inactive). Also, the GI50 with SW-620 was > 100 µM (inactive); in the experiment on SK-OV-3 it was > 100 µM (inactive); in the experiment with CCRF-CEM, 46.8 µM (inactive); in the experiment on HL-60 it was 61.2 µM (inactive).

For `c1ccc(/N=c2\snc3scc(-c4ccccc4)n23)cc1`, the GI50 with K562 is 52.6 µM (inactive); in the experiment on SN12C, 44.6 µM (inactive); with SF-268, 50.1 µM (inactive); in the experiment with TK-10 it was 66.2 µM (inactive); in the experiment with HCC 2998, 44.1 µM (inactive); in the experiment on COLO 205 it was 31.5 µM (inactive). Besides, the GI50 with LOX IMVI was 34.4 µM (inactive); in the experiment with MOLT-4, 29.3 µM (inactive); in the experiment on HOP-62, 30.5 µM (inactive); with KM12, 36.5 µM (inactive); with OVCAR-5 it was > 100 µM (inactive); in the experiment with UO-31, 27.6 µM (inactive). The GI50 was 39.4 µM (inactive) in the experiment with SW-620; 84.1 µM (inactive) in the experiment with SK-OV-3; 43.8 µM (inactive) in the experiment on CCRF-CEM; 40.6 µM (inactive) in the experiment on HL-60; 46.2 µM (inactive) with RXF 393.

As for `CCNC1=Nc2ccccc2-n2c(nn3nc4ccccc4c23)N1CC`, the GI50 with K562 is 66.7 µM (inactive); with SN12C, 77.4 µM (inactive); in the experiment on SF-268, > 100 µM (inactive); in the experiment with COLO 205, > 100 µM (inactive); with LOX IMVI it was > 100 µM (inactive); in the experiment with MOLT-4, 30.2 µM (inactive). Moreover, the GI50 in the experiment on HOP-62 is > 100 µM (inactive); in the experiment on KM12, 29.6 µM (inactive); in the experiment with OVCAR-5, > 100 µM (inactive); in the experiment on SR, 34.8 µM (inactive); in the experiment with SW-620, > 100 µM (inactive); in the experiment with CCRF-CEM, 80 µM (inactive). Moreover, the GI50 with HL-60 was 36.6 µM (inactive); in the experiment on RXF 393, > 100 µM (inactive).

Take `O=C(O)CNS(=O)(=O)c1ccc(NC(=O)c2ccc([N+](=O)[O-])cc2)cc1`: the GI50 in the experiment with K562, with SN12C, in the experiment on SF-268, in the experiment on TK-10, with HCC 2998 and in the experiment with COLO 205 was > 100 µM (inactive) each time. In addition, the GI50 in the experiment on LOX IMVI, with MOLT-4, with KM12, in the experiment with OVCAR-5, with UO-31 and in the experiment on SW-620 was > 100 µM (inactive) in each case. Further, the GI50 in the experiment on SK-OV-3, in the experiment on CCRF-CEM, in the experiment on HL-60 and in the experiment with RXF 393 was > 100 µM (inactive) in each case.

For the molecule `OCC1O[C@H](O[C@@H]2CCCN3CC(O)C(O)[C@@H]23)C(O)C(O)C1O` (some centres not stated), the GI50 in the experiment with K562, with SN12C, in the experiment on SF-268, with TK-10, in the experiment with HCC 2998 and with COLO 205 was > 100 µM (inactive) throughout. For the same molecule, the GI50 with MOLT-4, in the experiment with HOP-62, with KM12, with OVCAR-5, in the experiment with UO-31 and in the experiment with SR was > 100 µM (inactive) throughout. Moreover, the GI50 in the experiment on SW-620, in the experiment with SK-OV-3, with CCRF-CEM and in the experiment with HL-60 was > 100 µM (inactive) throughout.

`COc1cc(C2c3cc4c(cc3[C@@H](Nc3ccc(C(=O)O)cc3)C3COC(=O)[C@H]23)OCO4)cc(OC)c1O` (some centres not stated): the GI50 was 31.7 µM (inactive) in the experiment with SN12C; 14.6 µM (inactive) with SF-268; 27.8 µM (inactive) in the experiment with TK-10; 28.4 µM (inactive) in the experiment on HCC 2998; 4.41 µM (inactive) in the experiment with LOX IMVI; 0.721 µM (active) with MOLT-4. The GI50 is 8.15 µM (inactive) with HOP-62; 21.6 µM (inactive) with KM12; 22.5 µM (inactive) in the experiment on UO-31; 2.78 µM (inactive) in the experiment on CCRF-CEM; 2.49 µM (inactive) in the experiment with HL-60; 9.35 µM (inactive) in the experiment with RXF 393.

Consider `CCC(=O)O[C@@H]1C2C(OC(C)=O)C34COC(C)([C@@H]3C3C(C[C@]3(C)OC(C)=O)[C@@H](OC(=O)c3ccccc3)C4=O)[C@H](OC(C)=O)[C@@]2(OC(C)=O)C[C@@H]1C` (some centres not stated), for which the GI50 was > 10 µM (inactive) in the experiment with K562; > 100 µM (inactive) with SN12C; 44.1 µM (inactive) with SF-268; 15.1 µM (inactive) in the experiment on TK-10; 64.7 µM (inactive) in the experiment with HCC 2998; 43.5 µM (inactive) in the experiment on COLO 205. The GI50 with LOX IMVI was 32 µM (inactive); in the experiment with MOLT-4 it was > 100 µM (inactive); in the experiment on HOP-62 it was 25.1 µM (inactive); in the experiment on KM12, > 100 µM (inactive); with OVCAR-5, 94.4 µM (inactive); with UO-31 it was 59.8 µM (inactive). Also, the GI50 is 54.1 µM (inactive) in the experiment on SR; 47.8 µM (inactive) in the experiment with SW-620; 15.7 µM (inactive) in the experiment on SK-OV-3; 17.5 µM (inactive) with CCRF-CEM; 15.6 µM (inactive) in the experiment on HL-60.
